41 compounds from ChEMBL document CHEMBL2412976, “Structure optimization of 2-benzamidobenzoic acids as PqsD inhibitors for Pseudomonas aeruginosa infections and elucidation of binding mode by SPR, STD NMR, and molecular docking” (J Med Chem, 2013) can be followed below.

Molecules are shown by their SMILES. Substitutions are numbered along the chain they refer to. Calls of active or inactive are those of the source. No cut-off for these calls is given here.

For test [1], the system named is Pseudomonas aeruginosa. The experiment in a line: Inhibition of Pseudomonas aeruginosa PqsD assessed as HHQ formation at 50 uM incubated 30 mins prior to substrate addition.
A short description of test [2]: Inhibition of Pseudomonas aeruginosa PqsD using ACoA/beta-ketodecanoic acid as substrate assessed as HHQ formation incubated for 10 mins prior to ACoA/beta-ketodecanoic acid addition measured for 40 mins.
The test system of test [3] is Pseudomonas aeruginosa. The experiment in a line: Binding affinity to Pseudomonas aeruginosa PqsD at 20 uM by surface plasmon resonance analysis in absence of ACoA.
Test [4] deals with Pseudomonas aeruginosa. Put plainly: Binding affinity to Pseudomonas aeruginosa PqsD at 20 uM by surface plasmon resonance analysis in presence of ACoA. (In SPR one partner is held on a chip, and binding of the other changes the refractive index at the surface.)
Test [5] has as its system T1, 2-heptyl-4(1H)-quinolone synthase PqsD (Pseudomonas aeruginosa), A0A0C7ACN7 [S318F].
T1 sequence (whole entry): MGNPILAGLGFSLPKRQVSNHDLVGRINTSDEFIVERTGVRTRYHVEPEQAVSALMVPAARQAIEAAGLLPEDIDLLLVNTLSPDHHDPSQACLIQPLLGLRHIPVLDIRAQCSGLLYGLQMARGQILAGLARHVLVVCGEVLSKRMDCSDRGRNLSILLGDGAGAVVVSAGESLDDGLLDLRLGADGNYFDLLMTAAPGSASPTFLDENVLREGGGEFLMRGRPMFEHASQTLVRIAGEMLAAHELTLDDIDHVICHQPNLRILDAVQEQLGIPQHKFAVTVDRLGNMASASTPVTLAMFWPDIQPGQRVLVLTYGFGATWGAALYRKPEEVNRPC
Put plainly: Binding affinity to Pseudomonas aeruginosa PqsD S317F mutant expressed in Escherichia coli BL21 (lambdaDE3) cells by surface plasmon resonance analysis.

Test [6] concerns T2, 2-heptyl-4(1H)-quinolone synthase PqsD (Pseudomonas aeruginosa), A0A0C7ACN7 [H258F].
T2 sequence (whole entry): T1 sequence (whole entry) with H258F, F318S
The experiment in a line: Binding affinity to Pseudomonas aeruginosa PqsD H257F mutant expressed in Escherichia coli BL21 (lambdaDE3) cells by surface plasmon resonance analysis.

The test system of test [7] is T3, 2-heptyl-4(1H)-quinolone synthase PqsD (Pseudomonas aeruginosa), A0A0C7ACN7 [C113A].
T3 sequence (whole entry): T1 sequence (whole entry) with C113A, F318S
The experiment in a line: Binding affinity to Pseudomonas aeruginosa PqsD C112A mutant expressed in Escherichia coli BL21 (lambdaDE3) cells by surface plasmon resonance analysis.

Test [8] in a line: Inhibition of Pseudomonas aeruginosa PqsD using ACoA/beta-ketodecanoic acid as substrate assessed as HHQ formation incubated for 30 mins prior to ACoA addition followed by 10 mins after treated with beta-ketodecanoic acid measured for 40 mins.
For test [9], the system named is Pseudomonas aeruginosa. Put plainly: Binding affinity to Pseudomonas aeruginosa wild-type PqsD expressed in Escherichia coli BL21 (lambdaDE3) cells by surface plasmon resonance analysis.
Test [10] concerns Pseudomonas aeruginosa. Put plainly: Binding affinity to Pseudomonas aeruginosa wild-type PqsD by NMR spectroscopy analysis.
Test [11] concerns Pseudomonas aeruginosa. The experiment in a line: Binding affinity to Pseudomonas aeruginosa PqsD at 20 uM incubated prior to ACoA addition by surface plasmon resonance analysis in presence of ACoA.
Test [12] is described as follows: Binding affinity to Pseudomonas aeruginosa wild-type PqsD by isothermal titration calorimetry. A general note: Isothermal titration calorimetry measures the heat released or taken up as one component is titrated into another.
Test [13] relates to Pseudomonas aeruginosa. The experiment in a line: Binding affinity to Pseudomonas aeruginosa PqsD at 100 uM by surface plasmon resonance analysis in presence of ACoA.

On to `CCN(CC)S(=O)(=O)c1ccc(C(=O)Nc2ccccc2C(=O)O)cc1`, for which the inhibition (usually the share of the control response that was lost under treatment) in test [1] turned out to be 44%. Turning to `O=C(Nc1ccccc1C(=O)O)c1ccc(-c2ccccc2)c(Oc2ccccc2)c1`, in [2], the concentration for half-maximal inhibition (IC50) (usually the concentration needed to halve the response being measured) was 6.6 µM. Consider `CCN(CC)S(=O)(=O)c1cccc(C(=O)Nc2ccccc2C(N)=O)c1`, for which the inhibition in test [1] is 21%. As to `CCN(CC)S(=O)(=O)c1cc(C(=O)Nc2ccc(F)cc2C(=O)O)ccc1Br`, the IC50 in test [2] turned out to be 6.6 µM. On to `CCN(CC)S(=O)(=O)c1cccc(C(=O)Nc2ccc(Br)cc2C(=O)O)c1`, for which the result in test [3], in [4], in test [5], in [6], in [7] and in test [9] was Active. The IC50 in [2] was determined as 9.9 µM; in test [8] it was 7 µM.

Consider `CCN(CC)S(=O)(=O)c1cccc(C(=O)Nc2cccc(Cl)c2C(=O)O)c1`, for which the IC50 in [2] turned out to be 39 µM. As for `CCN(CC)S(=O)(=O)c1cccc(C(=O)Nc2cc([N+](=O)[O-])ccc2C(=O)O)c1`, the 50% inhibitory concentration (IC50) in [2] came to 6.3 µM. As for `CCN(CC)S(=O)(=O)c1cccc(C(=O)Nc2cccc(OC)c2C(=O)O)c1`, in test [1], the inhibition stood at 44%.

With `CCN(CC)S(=O)(=O)c1cccc(C(=O)Nc2ccc(C#N)cc2C(=O)O)c1`, in test [2], the 50% inhibitory concentration (IC50) is 26.2 µM. Consider `CCN(CC)C(=O)c1cccc(C(=O)Nc2ccccc2C(=O)O)c1`, for which the inhibition in test [1] was less than 10%. Turning to `NS(=O)(=O)c1cccc(C(=O)Nc2ccccc2C(=O)O)c1`, in [2], the IC50 was found to be 43.6 µM. On to `CCN(Cc1ccccc1)S(=O)(=O)c1cccc(C(=O)Nc2ccccc2C(=O)O)c1`, for which the result in [10] was Active. Further, the IC50 in [2] stood at 16.5 µM; in [8], 12.9 µM. For `CCc1ccc(C(=O)Nc2ccccc2C(=O)O)cc1S(=O)(=O)N(CC)CC`, in test [1], the inhibition came to 39%. On to `CCN(CC)S(=O)(=O)c1cccc(C(=O)Nc2ccc(C(F)(F)F)cc2C(=O)O)c1`, for which the IC50 in [2] came to 12.4 µM.

For the compound `CCN(CC)S(=O)(=O)c1cccc(C(=O)Nc2ccccc2C(=O)O)c1`, in [10], the outcome was Active. Also, the values for the half-inhibitory concentration (IC50) in [2] and in test [8] were 19.8 µM and 19.4 µM, respectively. The inhibition in [1] was 69%.

With `O=C(Nc1ccccc1C(=O)O)c1cccc(S(=O)(=O)N2CCCC2)c1`, the inhibition in [1] came out at 47%. On to `CCN(CC)C(=O)c1cccc(C(=O)Nc2ccc(Br)cc2C(=O)O)c1`, for which the concentration for half-maximal inhibition (IC50) in test [2] was 25.5 µM. On the same count and under the same terms, the figure for `CCN(CC)S(=O)(=O)c1cccc(C(=O)Nc2ccc(-c3ccc(C(N)=O)cc3)cc2C(=O)O)c1` is 1.9 µM. The same measure, in the same setting: then `CCN(CC)S(=O)(=O)c1cccc(C(=O)Nc2cccc(F)c2C(=O)O)c1`, with 24.9 µM. Turning to `CCN(CC)S(=O)(=O)c1cccc(C(=O)Nc2ccc(F)cc2C(=O)O)c1`, the IC50 in [2] came out at 11.4 µM. Same read-out and setting: then `CCN(CC)S(=O)(=O)c1cccc(C(=O)Nc2cc(Cl)ccc2C(=O)O)c1`, with 9.4 µM. As to `CCN(CC)S(=O)(=O)c1cccc(C(=O)Nc2ccc(-c3ccccc3)cc2C(=O)O)c1`, the result in [3], in test [4], in [5], in test [11], in test [6] and in test [7] was Active. In addition, the result in test [9] was Active. For the same compound, the IC50 in [2] came out at 3 µM; in test [8], 4.2 µM. For the same compound, the affinity in test [12], expressed as Kd, was 5.2 µM. As to `CCN(CC)S(=O)(=O)c1cccc(C(=O)Nc2ccc(-c3cccc(C(N)=O)c3)cc2C(=O)O)c1`, the IC50 in [2] came to 3.8 µM. The same measure, in the same setting: then `CCCN(CCC)S(=O)(=O)c1cccc(C(=O)Nc2ccccc2C(=O)O)c1`, with 5.4 µM.

Consider `CCN(CC)S(=O)(=O)c1cccc(C(=O)Nc2cc(F)ccc2C(=O)O)c1`, for which, in test [2], the IC50 was determined as 8 µM. Consider `O=C(Nc1ccccc1C(=O)O)c1cccc(S(=O)(=O)N2CCCCC2)c1`, for which the IC50 in test [2] stood at 14.4 µM. Same read-out and setting: the figure for `CCN(CC)S(=O)(=O)c1cccc(C(=O)Nc2ccc([N+](=O)[O-])cc2C(=O)O)c1` is 8.9 µM.

In the case of `CCN(CC)S(=O)(=O)c1cccc(C(=O)Nc2ccc(-c3ccc(C(=O)O)cc3)cc2C(=O)O)c1`, the IC50 is 2.7 µM in test [2] and 2 µM in test [8]. Consider `O=C(Nc1ccccc1C(=O)O)c1cccc(S(=O)(=O)N2CCCCCC2)c1`, for which the IC50 in test [2] stood at 14.8 µM. `CCN(CC)S(=O)(=O)c1cccc(C(=O)Nc2cccc(O)c2C(=O)O)c1`: the outcome in test [10] was Active. Besides, the results for the IC50 in test [2] and in [8] were 1.2 µM and 1.1 µM, respectively.

With `Cc1ccc(S(=O)(=O)c2cc(O)c3ccccc3c2O)cc1`, the IC50 in test [2] stood at 0.15 µM; in test [8], 1.1 µM. Besides, in test [13], the result was inactive. With `CCN(CC)S(=O)(=O)c1cc(C(=O)Nc2ccccc2C(=O)O)ccc1Br`, the result in test [5], in [6], in test [7] and in [9] was Active. For the same compound, in test [2], the IC50 worked out at 6.9 µM. Turning to `CN(C)S(=O)(=O)c1cccc(C(=O)Nc2ccccc2C(=O)O)c1`, in [1], the inhibition is 35%.

Consider `CCN(CC)S(=O)(=O)c1cccc(C(=O)Nc2ccc(C)cc2C(=O)O)c1`, for which, in [2], the IC50 is 18.4 µM.

Take `CCN(CC)S(=O)(=O)c1cc(C(=O)Nc2ccccc2C(=O)O)ccc1C`: the IC50 in [2] came out at 27.3 µM. With `CCN(CC)S(=O)(=O)c1ccc(C(=O)Nc2ccc(Br)cc2C(=O)O)cc1`, in test [2], the concentration for half-maximal inhibition (IC50) is 13 µM. Turning to `CCN(CC)S(=O)(=O)c1cccc(C(=O)Nc2ccc(-c3cccc(C(=O)O)c3)cc2C(=O)O)c1`, the values for the concentration for half-maximal inhibition (IC50) in test [2] and in test [8] were 1.5 µM and 1.6 µM, respectively. Turning to `CCN(CC)S(=O)(=O)c1cc(C(=O)Nc2ccc(Br)cc2C(=O)O)ccc1Br`, in test [2], the IC50 is 3.8 µM. Consider `O=[N+]([O-])c1ccccc1C(O)c1ccccc1` (configuration not stated), for which the half-inhibitory concentration (IC50) in test [2] is 3.2 µM. With `CCN(CC)S(=O)(=O)c1cccc(C(=O)Nc2cccc(C(=O)O)c2)c1`, in test [1], the inhibition amounted to 13%.

In the case of `O=C(Nc1ccccc1C(=O)O)c1cccc(S(=O)(=O)N2CCOCC2)c1`, in test [1], the inhibition worked out at 16%.
